Tested on: Beta-TC6
Experiment: Increase in insulin release in mouse BetaTC6 cells assessed as relative insulin release activity at 10 uM incubated for 2 to 4 hrs by FRET based HTRF assay relative to sunitinib
Format: functional

Row | Compound | Activity
1 | OCc1ccc(-c2ccc3ncc(-c4cccnc4)n3n2)cc1 | 20%
2 | COc1ccc(-c2cnc3ccc(N[C@H](CO)C(C)C)nn23)c(OC)c1 | 20%
3 | Clc1cccc(-c2nnc3ccc(-c4ncccn4)cn23)c1 | 10%
4 | OCc1ccc(-c2cnc3ccc(-c4cncnc4)nn23)cc1 | 10%
5 | CNC(=O)c1ccc(-c2ccc3nnc(-c4ccc(OCCCN(C)C)cc4)n3c2)cc1 | 20%
6 | Cc1cccc(-c2cnc3cccnn23)c1 | 10%
7 | O=C(Nc1cnc2cnc(-c3ccc4ccccc4c3)cn12)C1CCOC1 (stereo not drawn) | 10%
8 | CS(=O)(=O)Nc1cccc(-c2cn3c(-c4ccc5ncccc5c4)cnc3cn2)c1 | 20%
9 | COc1cc(-c2cnc3cnc(-c4ccc(OCCCN(C)C)nc4)cn23)ccc1O | 20%
10 | Cc1ccccc1-c1nnc2ccc(-c3cccc(C(=O)NCCO)c3)cn12 | 10%
11 | Cn1ccc2cc(-c3cnc4cnc(-c5cccc(C(N)=O)c5)cn34)ccc21 | 20%
12 | Fc1ccc(-c2ccc3nnc(-c4cscn4)n3c2)cc1Cl | 20%
13 | CN(C)CCNC(=O)c1cccc(-c2ccc3nnc(-c4ccc5nccnc5c4)n3c2)c1 | >=100%
14 | CN(C)C(=O)c1ccc(-c2cnc3cnc(-c4ccsc4)cn23)cc1 | 20%
15 | c1cc(-c2ccc3nnc(-c4ccc5c(c4)OCO5)n3c2)co1 | 50%
16 | CCCNc1ccc2ncc(-c3cccc(/C=C/C(=O)O)c3)n2n1 | 10%
17 | Clc1cccc(-c2nnc3ccc(-c4ccncc4)cn23)c1 | 50%
18 | OC1CCC(Nc2ccc3ncc(Br)n3n2)CC1 (stereo not drawn) | 10%
19 | CC(=O)Nc1ccc(-c2cnc3ccc(-c4ccc5c(c4)OCO5)nn23)cc1 | >=100%
20 | CC(C(=O)Nc1cnc2cnc(-c3cccc([N+](=O)[O-])c3)cn12)c1ccccc1 (stereo not drawn) | 20%
21 | Clc1cccc(-c2cn3c(-c4cccs4)cnc3cn2)c1 | 20%
22 | COc1cc(-c2nnc3ccc(-c4cccc(F)c4)cn23)ccc1O | 50%

Row | Compound | Activity
23 | CS(=O)(=O)c1cccc(-c2ccc3nnc(-c4cccc(OC(F)(F)F)c4)n3c2)c1 | 50%
24 | CCOc1cccc(-c2cn3c(-c4ccc(O)c(OC)c4)cnc3cn2)c1 | 50%
25 | Cn1cc(-c2cn3c(-c4ccc(O)cc4)cnc3cn2)cn1 | 20%
26 | c1ccc(Oc2cccc(-c3ccc4nnc(-c5ccncc5)n4c3)c2)cc1 | 20%
27 | Nc1cccc(-c2cn3c(NC(=O)Cc4ccc(F)c(F)c4)cnc3cn2)c1 | 10%
28 | CN(C)c1ccc(-c2cnc3cnc(-c4cccc(NS(C)(=O)=O)c4)cn23)cc1 | 20%
29 | CC(C)Oc1cccc(-c2cn3c(-c4cccc(CO)c4)cnc3cn2)c1 | 20%
30 | N#Cc1ccc(-c2cnc3cnc(-c4ccsc4)cn23)cc1 | 20%
31 | COc1cc(OC)cc(-c2cn3c(-c4ccsc4)cnc3cn2)c1 | 20%
32 | Oc1cccc(-c2ccc3nnc(-c4ccccn4)n3c2)c1 | 50%
33 | CC(C)(C)c1ccc(-c2cnc3cnc(-c4ccc(N)nc4)cn23)cc1 | 10%
34 | O=C(Nc1cnc2cnc(-c3cnn(Cc4ccccc4)c3)cn12)C1CCC1 | 20%
35 | Nc1ccc(-c2ccc3nnc(-c4cccc(C(F)(F)F)c4)n3c2)cn1 | 20%
36 | CN(C)CCNC(=O)c1ccc(-c2cn3c(-c4ccc(N(C)C)cc4)cnc3cn2)cc1 | 50%
37 | CN(C)C(=O)c1cccc(-c2cn3c(-c4ccc(N(C)C)cc4)cnc3cn2)c1 | 20%
38 | CCOc1cccc(-c2cn3c(-c4ccc5c(c4)OCO5)cnc3cn2)c1 | 50%
39 | COc1ccc(-c2nnc3ccc(-c4ccc(S(C)(=O)=O)cc4)cn23)cc1OC | 10%
40 | CC(=O)Nc1cccc(-c2cnc3ccc(-c4cccnc4)nn23)c1 | 10%
41 | COc1ccc(-c2nnc3ccc(-c4cccc(F)c4)cn23)cc1OC | >=100%
42 | c1cnc2ccc(-c3ccc4nnc(-c5cscn5)n4c3)cc2c1 | 50%
43 | Fc1ccc(-c2ccc3ncc(-c4cccs4)n3n2)cc1Cl | 20%

— ChEMBL document CHEMBL3727361, “Nitrogen bicyclic compounds as inhibitors for Scyl1 and Grk5” (2014)
